Among the data in patent US9453026B2, “ACC inhibitors and uses thereof” (Gilead Apollo, Inc., priority 2011, dated 2016) are IC50 values, retold here.

Some results are limits rather than exact numbers.

This experiment deals with ACC2 (Homo sapiens, UniProt O00763). Description: In vitro ACC2 inhibition assay (ADP-Glo). It is filed as biochemical. The conditions noted are these: read-out: ACC2. The essentials:
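Enzyme (human ACC1 or ACC2) and compound, serially diluted 1:3 over 11 points from a 600 uM DMSO stock, were preincubated 15 min before substrate addition.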
In general terms: ADP-Glo turns the ADP formed in a reaction into a luminescent signal.

Sequence of ACC2 (O00763 whole entry, species assumed): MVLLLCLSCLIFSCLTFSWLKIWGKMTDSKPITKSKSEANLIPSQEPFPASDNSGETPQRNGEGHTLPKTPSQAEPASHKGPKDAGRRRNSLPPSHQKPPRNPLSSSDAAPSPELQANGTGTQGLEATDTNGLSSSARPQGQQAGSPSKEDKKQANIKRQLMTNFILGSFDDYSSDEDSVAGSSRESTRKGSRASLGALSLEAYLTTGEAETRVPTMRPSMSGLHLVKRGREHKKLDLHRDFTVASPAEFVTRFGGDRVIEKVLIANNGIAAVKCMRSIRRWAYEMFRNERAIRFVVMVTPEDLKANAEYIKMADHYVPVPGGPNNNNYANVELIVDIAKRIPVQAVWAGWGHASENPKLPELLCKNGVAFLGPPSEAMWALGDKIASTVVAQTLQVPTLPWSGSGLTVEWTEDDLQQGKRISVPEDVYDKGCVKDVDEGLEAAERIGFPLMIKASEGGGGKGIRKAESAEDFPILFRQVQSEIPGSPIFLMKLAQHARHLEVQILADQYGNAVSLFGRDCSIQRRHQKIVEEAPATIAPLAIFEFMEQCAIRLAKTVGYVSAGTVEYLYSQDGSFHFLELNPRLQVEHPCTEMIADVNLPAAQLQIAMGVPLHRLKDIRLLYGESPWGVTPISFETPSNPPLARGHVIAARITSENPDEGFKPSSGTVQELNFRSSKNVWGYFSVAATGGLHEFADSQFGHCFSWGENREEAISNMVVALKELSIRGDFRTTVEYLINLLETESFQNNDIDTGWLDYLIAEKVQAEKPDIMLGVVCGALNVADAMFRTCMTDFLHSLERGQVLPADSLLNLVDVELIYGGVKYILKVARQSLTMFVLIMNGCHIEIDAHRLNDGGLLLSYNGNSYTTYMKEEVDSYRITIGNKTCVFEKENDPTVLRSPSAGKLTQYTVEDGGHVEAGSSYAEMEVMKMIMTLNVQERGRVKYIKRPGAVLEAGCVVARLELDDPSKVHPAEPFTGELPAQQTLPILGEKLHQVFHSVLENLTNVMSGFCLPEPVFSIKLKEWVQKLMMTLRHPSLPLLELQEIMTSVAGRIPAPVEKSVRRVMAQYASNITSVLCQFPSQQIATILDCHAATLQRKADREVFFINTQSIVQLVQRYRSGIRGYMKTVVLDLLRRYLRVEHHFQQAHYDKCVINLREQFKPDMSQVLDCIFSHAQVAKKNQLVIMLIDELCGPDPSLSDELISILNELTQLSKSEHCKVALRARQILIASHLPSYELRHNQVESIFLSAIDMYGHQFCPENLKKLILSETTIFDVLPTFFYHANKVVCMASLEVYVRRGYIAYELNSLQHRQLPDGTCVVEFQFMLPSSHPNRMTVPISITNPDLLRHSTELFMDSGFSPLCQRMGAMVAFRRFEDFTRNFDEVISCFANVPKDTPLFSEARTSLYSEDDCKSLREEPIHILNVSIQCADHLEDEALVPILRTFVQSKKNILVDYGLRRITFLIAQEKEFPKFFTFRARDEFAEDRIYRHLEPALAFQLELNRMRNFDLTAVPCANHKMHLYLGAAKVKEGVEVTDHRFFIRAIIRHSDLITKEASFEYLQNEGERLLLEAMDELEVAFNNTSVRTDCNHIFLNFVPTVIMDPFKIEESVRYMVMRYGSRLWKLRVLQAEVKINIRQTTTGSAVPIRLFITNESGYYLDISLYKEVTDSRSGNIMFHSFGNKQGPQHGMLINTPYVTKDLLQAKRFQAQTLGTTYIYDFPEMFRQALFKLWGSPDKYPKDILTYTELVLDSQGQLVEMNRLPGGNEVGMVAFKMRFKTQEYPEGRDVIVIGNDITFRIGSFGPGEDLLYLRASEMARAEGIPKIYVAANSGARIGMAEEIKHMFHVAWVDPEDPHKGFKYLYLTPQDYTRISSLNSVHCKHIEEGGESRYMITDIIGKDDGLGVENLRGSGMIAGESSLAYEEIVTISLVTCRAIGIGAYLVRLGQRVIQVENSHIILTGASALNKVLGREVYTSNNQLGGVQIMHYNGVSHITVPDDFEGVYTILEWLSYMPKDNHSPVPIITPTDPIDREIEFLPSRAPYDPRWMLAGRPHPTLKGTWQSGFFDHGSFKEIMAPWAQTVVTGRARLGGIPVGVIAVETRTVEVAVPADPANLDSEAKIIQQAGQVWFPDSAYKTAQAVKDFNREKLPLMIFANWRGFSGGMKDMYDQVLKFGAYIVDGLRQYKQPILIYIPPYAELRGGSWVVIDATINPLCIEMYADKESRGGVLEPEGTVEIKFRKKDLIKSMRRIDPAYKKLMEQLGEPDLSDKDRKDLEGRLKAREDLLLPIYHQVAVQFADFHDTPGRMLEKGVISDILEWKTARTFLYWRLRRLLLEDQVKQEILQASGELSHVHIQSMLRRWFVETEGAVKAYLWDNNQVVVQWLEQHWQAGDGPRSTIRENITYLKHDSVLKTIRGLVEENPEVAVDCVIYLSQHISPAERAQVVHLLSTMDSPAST

As to `CCOC(=O)c1sc2c(c1C)c(=O)n(C(C)(C)C(=O)O)c(=O)n2C[C@@H](OC(C)C)c1ccccc1` [I-109, 2-[6-(ethoxycarbonyl)-5-methyl-2,4-dioxo-1-[(2S)-2-phenyl-2-(propan-2-yloxy)ethyl]-1H,2H,3H,4H-thieno[2,3-d]pyrimidin-3-yl]-2-methylpropanoic acid], the IC50 was in the range of 5 to 20 µM.

With `CCOC(=O)c1sc2c(c1C)c(=O)n(C(C)(C)C(=O)O)c(=O)n2C[C@@H](OC)c1ccccc1` [I-111, 2-[6-(ethoxycarbonyl)-1-[(2S)-2-methoxy-2-phenylethyl]-5-methyl-2,4-dioxo-1H,2H,3H,4H-thieno[2,3-d]pyrimidin-3-yl]-2-methylpropanoic acid], the IC50 fell in the range of 5 to 20 µM. The same measure for `CCOC(=O)c1sc2c(c1C)c(=O)n(CC(N)=O)c(=O)n2C[C@@H](OC(C)C)c1ccccc1` [I-113, ethyl 3-(carbamoylmethyl)-5-methyl-2,4-dioxo-1-[(2S)-2-phenyl-2-(propan-2-yloxy)ethyl]-1H,2H,3H,4H-thieno[2,3-d]pyrimidine-6-carboxylate]: 20 to 50 µM; for `CCOC(=O)c1sc2c(c1C)c(=O)n(C(C)(C)C(N)=O)c(=O)n2C[C@@H](OC(C)C)c1ccccc1` [I-114, ethyl 3-(1-carbamoyl-1-methylethyl)-5-methyl-2,4-dioxo-1-[(2S)-2-phenyl-2-(propan-2-yloxy)ethyl]-1H,2H,3H,4H-thieno[2,3-d]pyrimidine-6-carboxylate]: 20 to 50 µM; for `Cc1c(-n2cccn2)sc2c1c(=O)n(C(C)(C)C(=O)O)c(=O)n2CCc1ccccc1` [I-116, 2-methyl-2-[5-methyl-2,4-dioxo-1-(2-phenylethyl)-6-(1H-pyrazol-1-yl)-1H,2H,3H,4H-thieno[2,3-d]pyrimidin-3-yl]propanoic acid]: under 5 µM. As for `Cc1c(-c2ncco2)sc2c1c(=O)n(C(C)(C)C(=O)O)c(=O)n2CCc1ccccc1` [I-117, 2-methyl-2-[5-methyl-6-(1,3-oxazol-2-yl)-2,4-dioxo-1-(2-phenylethyl)-1H,2H,3H,34H-thieno[2,3-d]pyrimidin-3-yl]propanoic acid], the figure is under 5 µM. As for `Cc1c(-n2ccnc2)sc2c1c(=O)n(C(C)(C)C(=O)O)c(=O)n2CCc1ccccc1` [I-118, 2-[6-(1H-imidazol-1-yl)-5-methyl-2,4-dioxo-1-(2-phenylethyl)-1H,2H,3H,4H-thieno[2,3-d]pyrimidin-3-yl]-2-methylpropanoic acid], the figure is 20 to 50 µM; as for `Cc1c(-c2ncco2)sc2c1c(=O)n(C(C)(C)C(=O)O)c(=O)n2C[C@@H](OC(C)C)c1ccccc1` [I-120, 2-methyl-2-[5-methyl-6-(1,3-oxazol-2-yl)-2,4-dioxo-1-[(2S)-2-phenyl-2-(propan-2-yloxy)ethyl]-1H,2H,3H,4H-thieno[2,3-d]pyrimidin-3-yl]propanoic acid], 5 to 20 µM; as for `Cc1c(-n2nccn2)sc2c1c(=O)n(C(C)(C)C(=O)O)c(=O)n2CCc1ccccc1` [I-122, 2-methyl-2-[5-methyl-2,4-dioxo-1-(2-phenylethyl)-6-(2H-1,2,3-triazol-2-yl)-1H,2H,3H,4H-thieno[2,3-d]pyrimidin-3-yl]propanoic acid], under 1 µM.

Regarding `CCOC(=O)c1sc2c(c1C)c(=O)n(C(C)(C)C(=O)O)c(=O)n2C[C@@H](OCC(C)C)c1ccccc1` [I-124, 2-[6-(ethoxycarbonyl)-5-methyl-1-[(2S)-2-(2-methylpropoxy)-2-phenylethyl]-2,4-dioxo-1H,2H,3H,4H-thieno[2,3-d]pyrimidin-3-yl]-2-methylpropanoic acid], the IC50 lay within 5 to 20 µM.

Consider `Cc1c(C2CCC2)sc2c1c(=O)n(C(C)(C)C(=O)O)c(=O)n2CCc1ccccc1` [I-125, 2-[6-cyclobutyl-5-methyl-2,4-dioxo-1-(2-phenylethyl)-1H,2H,3H,4H-thieno[2,3-d]pyrimidin-3-yl]-2-methylpropanoic acid], for which the IC50 lay within 5 to 20 µM. `CCOC(=O)c1sc2c(c1C)c(=O)n(C(C)(C)C(=O)O)c(=O)n2C[C@@H](OC(C)C)c1ccc(I)cc1` [I-126]: the IC50 lay within 20 to 50 µM. The same measure for `CCOC(=O)c1sc2c(c1C)c(=O)n(C(C)(C)C(=O)O)c(=O)n2C[C@H](OC(C)(C)C)c1ccccc1` [I-127, 2-[1-[(2R)-2-(tert-butoxy)-2-phenylethyl]-6-(ethoxycarbonyl)-5-methyl-2,4-dioxo-1H,2H,3H,4H-thieno[2,3-d]pyrimidin-3-yl]-2-methylpropanoic acid]: 20 to 50 µM. As for `CCOC(=O)c1sc2c(c1C)c(=O)n(C(C)(C)C(=O)O)c(=O)n2C[C@@H](OC(C)(C)C)c1ccccc1` [I-128, 2-[1-[(2S)-2-(tert-butoxy)-2-phenylethyl]-6-(ethoxycarbonyl)-5-methyl-2,4-doxo-1H,2H,3H,4H-thieno[2,3-d]pyrimidin-3-yl]-2-methylpropanoic acid], the figure is 20 to 50 µM. The same measure for `CCOC(=O)c1sc2c(c1C)c(=O)n(C(C)(C)C(=O)O)c(=O)n2C[C@H](OC(C)C)c1ccc(I)cc1` [I-129, (R)-2-(6-(ethoxycarbonyl)-1-(2-(4-iodophenyl)-2-isopropoxyethyl)-5-methyl-2,4-dioxo-1,2-dihydrothieno[2,3-d]pyrimidin-3(4H)-yl)-2-methylpropanoic acid]: 5 to 20 µM. In the case of `Cc1c(C2CC2)sc2c1c(=O)n(C(C)(C)C(=O)O)c(=O)n2CCc1ccccc1` [I-132, 2-[6-cyclopropyl-5-methyl-2,4-dioxo-1-(2-phenylethyl)-1H,2H,3H,4H-thieno[2,3-d]pyrimidin-3-yl]-2-methylpropanoic acid], the IC50 was 20 to 50 µM. The same measure for `Cc1c(-c2ncco2)sc2c1c(=O)n(C(C)(C)C(=O)O)c(=O)n2C[C@H](OCc1ccccc1)c1ccccc1` [I-136, 2-[1-[(2R)-2-(benzyloxy)-2-phenylethyl]-5-methyl-6-(1,3-oxazol-2-yl)-2,4-dioxo-1H,2H,3H,4H-thieno[2,3-d]pyrimidin-3-yl]-2-methylpropanoic acid]: under 5 µM. The same measure for `Cc1c(-c2ncco2)sc2c1c(=O)n(C(C)(C)C(=O)O)c(=O)n2C[C@H](OCC(F)(F)F)c1ccccc1` [I-137, 2-methyl-2-[5-methyl-6-(1,3-oxazol-2-yl)-2,4-dioxo-1-[2-phenyl-2-(2,2,2-trifluoroethoxy)ethyl]-1H,2H,3H,4H-thieno[2,3-d]pyrimidin-3-yl]propanoic acid]: under 1 µM; for `Cc1c(-c2ncco2)sc2c1c(=O)n(C(C)(C)C(=O)O)c(=O)n2C[C@@H](OCC(F)(F)F)c1ccccc1` [I-138, (S)-2-methyl-2-(5-methyl-6-(oxazol-2-yl)-2,4-dioxo-1-(2-phenyl-2-(2,2,2-trifluoroethoxy)ethyl)-1,2-dihydrothieno[2,3-d]pyrimidin-3(4H)-yl)propanoic acid]: 5 to 20 µM. The same measure for `Cc1c(-c2nccs2)sc2c1c(=O)n(C(C)(C)C(=O)O)c(=O)n2C[C@H](OC(C)C)c1ccccc1` [I-141, 2-methyl-2-[5-methyl-2,4-dioxo-1-[(2R)-2-phenyl-2-(propan-2-yloxy)ethyl]-6-(1,3-thiazol-2-yl)-1H,2H,3H,4H-thieno[2,3-d]pyrimidin-3-yl]propanoic acid]: under 5 µM. For the molecule `Cc1c(-c2ncco2)sc2c1c(=O)n(CC#N)c(=O)n2C[C@H](OC(C)C)c1ccccc1` [I-142, 2-(1-((R)-2-Isopropoxy-2-phenylethyl)-5-methyl-6-(oxazol-2-yl)-2,4-dioxo-1,2-dihydrothieno[2,3-d]pyrimidin-3(4H)-yl)acetonitrile], the IC50 was under 1 µM.

As to `Cc1c(-c2ncco2)sc2c1c(=O)n(C(C)(C)C(=O)O)c(=O)n2C[C@@H](Oc1ccccc1)c1ccccc1` [I-144, 2-methyl-2-[5-methyl-6-(1,3-oxazol-2-yl)-2,4-dioxo-1-[(2S)-2-phenoxy-2-phenylethyl]-1H,2H,3H,4H-thieno[2,3-d]pyrimidin-3-yl]propanoic acid], the IC50 lay in the range of 5 to 20 µM. The same measure for `Cc1c(-c2ncco2)sc2c1c(=O)n(C(C)(C)C(=O)O)c(=O)n2C[C@H](OCC1CCCO1)c1ccccc1` (stereo partly drawn) [I-146, 2-methyl-2-[5-methyl-6-(1,3-oxazol-2-yl)-2,4-dioxo-1-[(2R)-2-(oxolan-2-ylmethoxy)-2-phenylethyl]-1H,2H,3H,4H-thieno[2,3-d]pyrimidin-3-yl]propanoic acid]: under 1 µM. The same measure for `Cc1c(-c2ncco2)sc2c1c(=O)n(C(C)(C)C(=O)O)c(=O)n2C[C@H](OC1CCC(C)(C)CC1)c1ccccc1` [I-148, 2-[1-[(2R)-2-[(4,4-dimethylcyclohexyl)oxy]-2-phenylethyl]-5-methyl-6-(1,3-oxazol-2-yl)-2,4-dioxo-1H,2H,3H,4H-thieno[2,3-d]pyrimidin-3-yl]-2-methylpropanoic acid]: under 5 µM. Turning to `Cc1c(-c2ncco2)sc2c1c(=O)n(C(C)(C)C(=O)O)c(=O)n2C[C@H](Oc1ccc(F)cc1)c1ccccc1` [I-149, (R)-2-(1-(2-(4-fluorophenoxy)-2-phenylethyl)-5-methyl-6-(oxazol-2-yl)-2,4-dioxo-1,2-dihydrothieno[2,3-d]pyrimidin-3(4H)-yl)-2-methylpropanoic acid], the IC50 is under 1 µM. The same measure for `Cc1c(-c2ncco2)sc2c1c(=O)n(C(C)(C)C(=O)O)c(=O)n2C[C@@H](Oc1ccc(F)cc1)c1ccccc1` [I-150, (S)-2-(1-(2-(4-fluorophenoxy)-2-phenylethyl)-5-methyl-6-(oxazol-2-yl)-2,4-dioxo-1,2-dihydrotheno[2,3-d]pyrimidin-3(4H)-yl)-2-methylpropanoic acid]: 5 to 20 µM; for `CCCc1ccccc1CCn1c(=O)n(C(C)(C)C(N)=O)c(=O)c2c(C)c(-c3ncco3)sc21` [I-151, 2-methyl-2-[5-methyl-6-(1,3-oxazol-2-yl)-2,4-dioxo-1-[2-(2-propylphenyl)ethyl]-1H,2H,3H,4H-thieno[2,3-d]pyrimidin-3-yl]propanamide]: under 1 µM.

As for `Cc1c(-c2ncco2)sc2c1c(=O)n(C(C)(C)C(=O)O)c(=O)n2C[C@H](O[C@H]1CCCC[C@@H]1C)c1ccccc1` [I-152, 2-methyl-2-[5-methyl-1-[(2R)-2-[[(1S,2S)-2-methylcyclohexyl]oxy]-2-phenylethyl]-6-(1,3-oxazol-2-yl)-2,4-dioxo-1H,2H,3H,4H-thieno[2,3-d]pyrimidin-3-yl]propanoic acid], the IC50 was under 1 µM.
